According to patent US12421211B2, “Heterocyclic compounds” (Hoffmann-La Roche Inc., priority 2021, dated 2025):
Structures can show the parent of a compound that is named as a salt.

system: Acinetobacter baumannii ATCC17961; experiment: Antimicrobial susceptibility testing: 90% growth inhibitory concentration (IC90) determination; format: cell-based; conditions: 90% growth inhibitory concentration, Acinetobacter baumannii ATCC17961, Iso-Sensitest broth, OD 600 nm over 16 h; formate; read-out: ATCC 17961 IC90
Description: Assay Procedures Antimicrobial Susceptibility Testing: 90% Growth Inhibitory Concentration (IC90) Determination
The in vitro antimicrobial activity of the compounds was determined according to the following procedure:
The assay used a 10-points Iso-Sensitest broth medium to measure quantitatively the in vitro activity of the compounds against Acinetobacter baumannii ATCC17961.
Stock compounds in DMSO were serially twofold diluted (e.g. range from 50 to 0.097 μM final concentration) in 384 wells microtiter plates and inoculated with 49 μl the bacterial suspension in Iso-Sensitest medium to have a final cell concentration of ˜5×10^(5) CFU/ml in a final volume/well of 50 ul/well. Microtiter plates were incubated at 35±2° C.
Bacterial cell growth was determined with the measurement of optical density at λ=600 nm each 20 minutes over a time course of 16h. Growth inhibition was calculated during the logarithmic growth of the bacterial cells with determination of the concentration inhibiting 50% (IC50) and 90% (IC90) of the growth.
Table 1 provides the 90% growth inhibitory concentrations (IC90) in micromoles per liter of the compounds of present invention obtained against the strain Acinetobacter baumannii ATCC17961.

In the case of `COCCn1cc(-c2ccc(-c3cnc(C(=O)Nc4ccc(C(=O)N5CCN(C(=O)C6CC[N+](C)(CC(N)=O)CC6)CC5)c(Cl)c4)n3C)c(F)c2F)c(C)n1` (centres unmarked) [Example B3, N-[4-[4-[1-(2-amino-2-oxo-ethyl)-1-methyl-piperidin-1-ium-4-carbonyl]piperazine-1-carbonyl]-3-chloro-phenyl]-5-[2,3-difluoro-4-[1-(2-methoxyethyl)-3-methyl-pyrazol-4-yl]phenyl]-1-methyl-imidazole-2-carboxamide; formate], the IC90 was 130 nM.

same assay, conditions: Acinetobacter baumannii, ATCC17961, 16 h, 90% growth inhibitory concentration, Acinetobacter baumannii ATCC17961, Iso-Sensitest broth, OD 600 nm over 16 h; read-out: ATCC 17961 IC90

First: COCCn1nc(C)c(-c2ccc(-c3cnc(C(=O)Nc4ccc(C(=O)NC5[C@H]6CN(C(=O)N[C@@H]7C[N+](C)(C)C[C@H]7O)C[C@@H]56)c(Cl)c4)n3C)c(F)c2F)c1C (mixture of isomers) [Example F60, rac-(1S,5R)-6-[[2-chloro-4-[[5-[2,3-difluoro-4-[1-(2-methoxyethyl)-3,5-dimethyl-pyrazol-4-yl]phenyl]-1-methyl-imidazole-2-carbonyl]amino]benzoyl]amino]-N-[(3R,4R)-4-hydroxy-1,1-dimethyl-pyrrolidin-1-ium-3-yl]-3-azabicyclo[3.1.0]hexane-3-carboxamide; formate]
Second: COCCn1nc(C)c(-c2ccc(-c3cnc(C(=O)Nc4ccc(C(=O)N5CCN(C(=O)[C@@H]6C[C@@H](O)C[N+]6(C)C)CC5)c(Cl)c4)n3C)c(F)c2F)c1C (racemic) [Example D3, N-[3-chloro-4-[4-[(2S,4R)-4-hydroxy-1,1-dimethyl-pyrrolidin-1-ium-2-carbonyl]piperazine-1-carbonyl]phenyl]-5-[2,3-difluoro-4-[1-(2-methoxyethyl)-3,5-dimethyl-pyrazol-4-yl]phenyl]-1-methyl-imidazole-2-carboxamide; formate]
The IC90 of the first is 2.6-fold lower: 150 nM for the first, 390 nM for the second.

Compared with `COCCn1nc(C)c(-c2ccc(-c3cnc(C(=O)Nc4ccc(C(=O)N5CCN(C(=O)C6CC[N+](C)(C)CC6)CC5)c(Cl)c4)n3C)c(F)c2F)c1C` [Example A2, N-[3-chloro-4-[4-(1,1-dimethylpiperidin-1-ium-4-carbonyl)piperazine-1-carbonyl]phenyl]-5-[2,3-difluoro-4-[1-(2-methoxyethyl)-3,5-dimethyl-pyrazol-4-yl]phenyl]-1-methyl-imidazole-2-carboxamide; formate], `COCCn1ncc(-c2ccc(-c3cnc(C(=O)Nc4ccc(C(=O)N5CCN(C(=O)C6CC[N+](C)(C)CC6)CC5)c(Cl)c4)n3C)c(F)c2F)c1C` [Example A4, N-[3-chloro-4-[4-(1,1-dimethylpiperidin-1-ium-4-carbonyl)piperazine-1-carbonyl]phenyl]-5-[2,3-difluoro-4-[1-(2-methoxyethyl)-5-methyl-pyrazol-4-yl]phenyl]-1-methyl-imidazole-2-carboxamide; formate] is 2.1-fold lower in IC90: 230 nM for the first, 110 nM for the second.

Compared with `COCCn1nc(C)c(-c2ccc(-c3cnc(C(=O)Nc4ccc(C(=O)N5CCN(C(=O)C6CC[N+](C)(C)CC6)CC5)c(Cl)c4)n3C)cc2)c1C` [Example A3, N-[3-chloro-4-[4-(1,1-dimethylpiperidin-1-ium-4-carbonyl)piperazine-1-carbonyl]phenyl]-5-[4-[1-(2-methoxyethyl)-3,5-dimethyl-pyrazol-4-yl]phenyl]-1-methyl-imidazole-2-carboxamide; formate], `COCCn1ncc(-c2ccc(-c3cnc(C(=O)Nc4ccc(C(=O)N5CCC(C(=O)N6CC[N+](C)(C)CC6)CC5)c(Cl)c4)n3C)c(F)c2F)c1C` [Example A10, N-[3-chloro-4-[4-(4,4-dimethylpiperazin-4-ium-1-carbonyl)piperidine-1-carbonyl]phenyl]-5-[2,3-difluoro-4-[1-(2-methoxyethyl)-5-methyl-pyrazol-4-yl]phenyl]-1-methyl-imidazole-2-carboxamide; formate] is 2.3-fold lower in IC90: 230 nM for the first, 98 nM for the second.

Going from `COCCn1ncc(-c2ccc(-c3cnc(C(=O)Nc4ccc(C(=O)N5CCN(C(=O)C[C@@H]6CC[N+](C)(C)C6)CC5)c(Cl)c4)n3C)c(F)c2F)c1C` [Example A5, N-[3-chloro-4-[4-[2-[(3S)-1,1-dimethylpyrrolidin-1-ium-3-yl]acetyl]piperazine-1-carbonyl]phenyl]-5-[2,3-difluoro-4-[1-(2-methoxyethyl)-5-methyl-pyrazol-4-yl]phenyl]-1-methyl-imidazole-2-carboxamide; formate] to `COCCn1ncc(-c2ccc(-c3cnc(C(=O)Nc4ccc(C(=O)N5CCN(C(=O)C6(OC)CC[N+](C)(C)CC6)CC5)c(Cl)c4)n3C)c(F)c2F)c1C` [Example A13, N-[3-chloro-4-[4-(4-methoxy-1,1-dimethyl-piperidin-1-ium-4-carbonyl)piperazine-1-carbonyl]phenyl]-5-[2,3-difluoro-4-[1-(2-methoxyethyl)-5-methyl-pyrazol-4-yl]phenyl]-1-methyl-imidazole-2-carboxamide; formate], the IC90 rises from 55 nM to 110 nM (2-fold).

Compared with `COCCn1cc(-c2ccc(-c3cnc(C(=O)Nc4ccc(C(=O)N5CCN(C(=O)[C@@H]6CC(CO)C[N+]6(C)C)CC5)c(Cl)c4)n3C)c(F)c2F)c(C)n1` (stereo partly drawn) [Example A12, N-[3-chloro-4-[4-[(2S)-4-(hydroxymethyl)-1,1-dimethyl-pyrrolidin-1-ium-2-carbonyl]piperazine-1-carbonyl]phenyl]-5-[2,3-difluoro-4-[1-(2-methoxyethyl)-3-methyl-pyrazol-4-yl]phenyl]-1-methyl-imidazole-2-carboxamide; formate], `COCCn1cc(-c2ccc(-c3cnc(C(=O)Nc4ccc(C(=O)N5CCN(C(=O)C6CC[N+](C)(CC(N)=O)CC6)CC5)c(Cl)c4)n3C)c(F)c2F)c(C)n1` (centres unmarked) [Example B2, N-[4-[4-[1-(2-amino-2-oxo-ethyl)-1-methyl-piperidin-1-ium-4-carbonyl]piperazine-1-carbonyl]-3-chloro-phenyl]-5-[2,3-difluoro-4-[1-(2-methoxyethyl)-3-methyl-pyrazol-4-yl]phenyl]-1-methyl-imidazole-2-carboxamide; formate] is 1.8-fold lower in IC90: 210 nM for the first, 120 nM for the second.

same assay, conditions: Acinetobacter baumannii, ATCC17961, 16 h, read-out: ATCC 17961 IC90

Compared with `COCCn1cc(-c2ccc(-c3cnc(C(=O)Nc4ccc(C(=O)N5CCN(C(=O)C6CC[N+](C)(C)CC6)CC5)c(Cl)c4)n3C)c(F)c2F)c(C)n1` [Example A1, N-[3-chloro-4-[4-(1,1-dimethylpiperidin-1-ium-4-carbonyl)piperazine-1-carbonyl]phenyl]-5-[2,3-difluoro-4-[l-(2-methoxyethyl)-3-methyl-pyrazol-4-yl]phenyl]-1-methyl-imidazole-2-carboxamide; formate], `COCCn1cc(-c2ccc(-c3cnc(C(=O)Nc4ccc(C(=O)N5CCN(C(=O)C6CC[N+](C)(CC(N)=O)CC6)CC5)c(Cl)c4)n3C)c(F)c2F)c(C)n1` (centres unmarked) [Example B1, N-[4-[4-[1-(2-amino-2-oxo-ethyl)-1-methyl-piperidin-1-ium-4-carbonyl]piperazine-1-carbonyl]-3-chloro-phenyl]-5-[2,3-difluoro-4-[1-(2-methoxyethyl)-3-methyl-pyrazol-4-yl]phenyl]-1-methyl-imidazole-2-carboxamide; formate] is 1.6-fold higher in IC90: 120 nM for the first, 190 nM for the second.

First: COCCn1ncc(-c2ccc(-c3cnc(C(=O)Nc4ccc(C(=O)N5CCN(C(=O)C[N+](C)(C)C)CC5)c(Cl)c4)n3C)c(F)c2F)c1C [Example A8, [2-[4-[2-chloro-4-[[5-[2,3-difluoro-4-[1-(2-methoxyethyl)-5-methyl-pyrazol-4-yl]phenyl]-1-methyl-imidazole-2-carbonyl]amino]benzoyl]piperazin-1-yl]-2-oxo-ethyl]-trimethyl-ammonium; 2,2,2-trifluoroacetate]
Second: COCCn1ncc(-c2ccc(-c3cnc(C(=O)Nc4ccc(C(=O)NCC5CCN(C(=O)C[N+](C)(C)C)CC5)c(Cl)c4)n3C)c(F)c2F)c1C [Example A9, [2-[4-[[[2-chloro-4-[[5-[2,3-difluoro-4-[1-(2-methoxyethyl)-5-methyl-pyrazol-4-yl]phenyl]-1-methyl-imidazole-2-carbonyl]amino]benzoyl]amino]methyl]-1-piperidyl]-2-oxo-ethyl]-trimethyl-ammonium; 2,2,2-trifluoroacetate]
The IC90 of the first is 3-fold lower: 53 nM for the first, 160 nM for the second.

Compared with `Cc1nn(CC(F)F)cc1-c1ccc(-c2cnc(C(=O)Nc3ccc(C(=O)N4CCN(C(=O)C5CC[N+](C)(CC(N)=O)CC5)CC4)c(Cl)c3)n2C)c(F)c1F` (centres unmarked) [Example B7, N-[4-[4-[1-(2-amino-2-oxo-ethyl)-1-methyl-piperidin-1-ium-4-carbonyl]piperazine-1-carbonyl]-3-chloro-phenyl]-5-[4-[1-(2,2-difluoroethyl)-3-methyl-pyrazol-4-yl]-2,3-difluoro-phenyl]-1-methyl-imidazole-2-carboxamide; formate], `COCCn1nc(C)c(-c2ccc(-c3cnc(C(=O)Nc4ccc(C(=O)N5CCN(C(=O)C6CC[N+](C)(CCO)CC6)CC5)c(Cl)c4)n3C)c(F)c2F)c1C` (centres unmarked) [Example B8, N-[3-chloro-4-[4-[1-(2-hydroxyethyl)-1-methyl-piperidin-1-ium-4-carbonyl]piperazine-1-carbonyl]phenyl]-5-[2,3-difluoro-4-[1-(2-methoxyethyl)-3,5-dimethyl-pyrazol-4-yl]phenyl]-1-methyl-imidazole-2-carboxamide; formate] is 1.6-fold higher in IC90: 170 nM for the first, 280 nM for the second.
